Assay results taken from ChEMBL document CHEMBL1909046, “DrugMatrix in vitro pharmacology data”.

Tests used:
[1] = DRUGMATRIX: ATPase, Na+/K+ enzyme inhibition (substrate: ATP); format: tissue-based, Sus scrofa, Heart; details: Not Active = under 50% inhibition at 10 µM
[2] = DRUGMATRIX: Glutamate, NMDA, Agonism radioligand binding (ligand: [3H] CGP-39653); format: cell membranes, Rattus norvegicus, Wistar, Cerebral cortex, Membrane; details: Not Active = under 50% inhibition at 10 µM
[3] = DRUGMATRIX: Imidazoline I2, Central radioligand binding (ligand: [3H] Idazoxan); format: cell membranes, Rattus norvegicus, Wistar, Cerebral cortex, Membrane; details: Not Active = under 50% inhibition at 10 µM
[4] = target: T1, Cysteinyl leukotriene receptor 1 (Homo sapiens, UniProt Q9Y271); format: cell membranes, Membrane; details: cho-k1; further: in other assays of this panel Not Active means under 50% inhibition at 10 µM
T1 sequence (Q9Y271 whole entry): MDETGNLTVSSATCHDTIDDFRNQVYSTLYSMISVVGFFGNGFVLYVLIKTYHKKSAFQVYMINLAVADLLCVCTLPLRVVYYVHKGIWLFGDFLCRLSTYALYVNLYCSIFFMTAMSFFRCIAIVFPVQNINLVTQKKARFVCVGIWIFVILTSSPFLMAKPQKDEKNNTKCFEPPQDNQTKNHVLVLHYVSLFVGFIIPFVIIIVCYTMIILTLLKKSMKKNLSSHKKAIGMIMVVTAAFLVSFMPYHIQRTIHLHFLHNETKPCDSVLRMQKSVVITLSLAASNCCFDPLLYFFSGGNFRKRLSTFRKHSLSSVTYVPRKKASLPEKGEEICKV

[5] = target: Melanocortin receptor 4 (Homo sapiens, UniProt P32245); format: cell membranes, Membrane; details: hek293; further: in other assays of this panel Not Active means under 50% inhibition at 10 µM
Sequence of Melanocortin receptor 4 (P32245 whole entry): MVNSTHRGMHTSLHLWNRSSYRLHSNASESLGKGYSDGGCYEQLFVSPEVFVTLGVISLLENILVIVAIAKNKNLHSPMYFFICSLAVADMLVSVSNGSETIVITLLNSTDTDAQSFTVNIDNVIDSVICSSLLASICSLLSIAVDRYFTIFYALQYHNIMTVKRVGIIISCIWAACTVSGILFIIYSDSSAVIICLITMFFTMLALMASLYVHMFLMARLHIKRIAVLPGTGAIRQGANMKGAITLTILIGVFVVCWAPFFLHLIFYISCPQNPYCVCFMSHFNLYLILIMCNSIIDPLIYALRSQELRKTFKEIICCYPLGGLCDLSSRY

[6] = DRUGMATRIX: Platelet-Derived Growth Factor (PDGF) radioligand binding (ligand: [125I] PDGF); format: cell-based; details: nih3t3; Not Active = under 50% inhibition at 10 µM
[7] = target: T2, Caspase-1 (Homo sapiens, UniProt P29466); set-up: species or system Escherichia coli;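 further: Caspase-1 enzyme inhibition assay with a peptide substrate; in other assays of this panel Not Active means under 50% inhibition at 10 µM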
T2 sequence (P29466 whole entry): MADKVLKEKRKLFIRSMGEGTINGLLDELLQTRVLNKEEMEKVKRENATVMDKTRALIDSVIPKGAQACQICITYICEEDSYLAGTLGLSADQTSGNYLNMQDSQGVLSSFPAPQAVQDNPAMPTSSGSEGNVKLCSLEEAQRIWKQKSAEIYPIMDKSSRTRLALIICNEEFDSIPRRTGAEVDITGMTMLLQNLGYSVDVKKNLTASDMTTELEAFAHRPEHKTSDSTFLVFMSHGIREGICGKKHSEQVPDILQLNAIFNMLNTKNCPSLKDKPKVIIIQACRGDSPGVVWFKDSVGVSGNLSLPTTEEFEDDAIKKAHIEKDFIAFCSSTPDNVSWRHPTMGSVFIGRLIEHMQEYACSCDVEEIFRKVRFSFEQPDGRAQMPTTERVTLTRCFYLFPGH

[8] = target: Mitogen-activated protein kinase 1 (Homo sapiens, UniProt P28482); test: DRUGMATRIX: Protein Serine/Threonine Kinase, ERK2 enzyme inhibition (substrate: Myelin Basic Protein); set-up: species or system Escherichia coli; details: Not Active = under 50% inhibition at 10 µM
Sequence of Mitogen-activated protein kinase 1 (P28482 whole entry): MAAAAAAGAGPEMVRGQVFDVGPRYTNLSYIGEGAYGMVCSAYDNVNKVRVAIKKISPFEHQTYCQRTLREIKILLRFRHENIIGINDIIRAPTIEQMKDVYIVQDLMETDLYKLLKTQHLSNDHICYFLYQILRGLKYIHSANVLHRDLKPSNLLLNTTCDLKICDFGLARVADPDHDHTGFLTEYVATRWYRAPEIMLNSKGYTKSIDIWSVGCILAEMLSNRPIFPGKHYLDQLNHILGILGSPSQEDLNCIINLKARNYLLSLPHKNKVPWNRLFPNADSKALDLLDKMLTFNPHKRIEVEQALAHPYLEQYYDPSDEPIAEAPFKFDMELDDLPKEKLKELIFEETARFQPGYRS

SMILES | IC50 [1] | Ki [1] | IC50 [2] | Ki [2] | IC50 [3] | Ki [3] | IC50 [4] | IC50 [5] | IC50 [6] | Ki [6] | IC50 [7] | IC50 [8] | IC50 ([3]; read-out: IC50) [nM] | Ki ([3]; read-out: Ki) [nM]
O=C(O)c1cc(=O)c2c(OCC(O)COc3cccc4oc(C(=O)O)cc(=O)c34)cccc2o1 [CROMOLYN] | Not Active | Not Active | Not Active | Not Active | Not Active | Not Active | Not Active | Not Active | Not Active | Not Active | Not Active | Not Active |  | 
O=P1(N(CCCl)CCCl)NCCCO1 (stereo unspecified) [CYCLOPHOSPHAMIDE ANHYDROUS] | Not Active | Not Active | Not Active | Not Active | Not Active | Not Active | Not Active | Not Active | Not Active | Not Active | Not Active | Not Active |  | 
CC(=O)O[C@]1(C(C)=O)CC[C@H]2[C@@H]3C=C(Cl)C4=CC(=O)[C@@H]5C[C@@H]5[C@]4(C)[C@H]3CC[C@@]21C [CYPROTERONE ACETATE] | Not Active | Not Active | Not Active | Not Active | Not Active | Not Active | Not Active | Not Active | Not Active | Not Active | Not Active | Not Active |  | 
Nc1nc(N)nc(NC2CC2)n1 [CYROMAZINE] | Not Active | Not Active | Not Active | Not Active | Not Active | Not Active | Not Active | Not Active | Not Active | Not Active | Not Active | Not Active |  | 
C#C[C@]1(O)CC[C@H]2[C@@H]3CCC4=Cc5oncc5C[C@]4(C)[C@H]3CC[C@@]21C [DANAZOL] | Not Active | Not Active | Not Active | Not Active | Not Active | Not Active | Not Active | Not Active | Not Active | Not Active | Not Active | Not Active |  | 
CCN[C@@H](C)Cc1cccc(C(F)(F)F)c1 [DEXFENFLURAMINE] | Not Active | Not Active | Not Active | Not Active | Not Active | Not Active | Not Active | Not Active | Not Active | Not Active | Not Active | Not Active |  | 
C[C@H](C(=O)O)c1cccc(C(=O)c2ccccc2)c1 [DEXKETOPROFEN] | Not Active | Not Active | Not Active | Not Active | Not Active | Not Active | Not Active | Not Active | Not Active | Not Active | Not Active | Not Active |  | 
CN1C(=O)CN=C(c2ccccc2)c2cc(Cl)ccc21 [DIAZEPAM] | Not Active | Not Active | Not Active | Not Active | Not Active | Not Active | Not Active | Not Active | Not Active | Not Active | Not Active | Not Active |  | 
CN1C[C@H](C(=O)N[C@]2(C)O[C@@]3(O)[C@@H]4CCCN4C(=O)[C@H](Cc4ccccc4)N3C2=O)C[C@@H]2c3cccc4[nH]cc(c34)C[C@H]21 [DIHYDROERGOTAMINE] | Not Active | Not Active | Not Active | Not Active |  |  | Not Active | Not Active | Not Active | Not Active | Not Active | Not Active | 2.5 | 1.67
CC(CCc1ccc(O)cc1)NCCc1ccc(O)c(O)c1 (stereo unspecified) [DOBUTAMINE] | Not Active | Not Active | Not Active | Not Active | Not Active | Not Active | Not Active | Not Active | Not Active | Not Active | Not Active | Not Active |  | 
CCn1cc(C(=O)O)c(=O)c2cc(F)c(N3CCNCC3)nc21 [ENOXACIN] | Not Active | Not Active | Not Active | Not Active | Not Active | Not Active | Not Active | Not Active | Not Active | Not Active | Not Active | Not Active |  | 
CCC(=O)O[C@H]1[C@H](O[C@@H]2[C@@H](C)[C@H](O[C@H]3C[C@@](C)(OC)[C@@H](O)[C@H](C)O3)[C@@H](C)C(=O)O[C@H](CC)[C@@](C)(O)[C@H](O)[C@@H](C)C(=O)[C@H](C)C[C@@]2(C)O)O[C@H](C)C[C@@H]1N(C)C [ERYTHROMYCIN PROPIONATE] | Not Active | Not Active | Not Active | Not Active | Not Active | Not Active | Not Active | Not Active | Not Active | Not Active | Not Active | Not Active |  | 
C=C(CC)C(=O)c1ccc(OCC(=O)O)c(Cl)c1Cl [ETHACRYNIC ACID] | Not Active | Not Active | Not Active | Not Active | Not Active | Not Active | Not Active | Not Active | Not Active | Not Active | Not Active | Not Active |  | 
C#C[C@]1(O)CC[C@H]2[C@@H]3CCc4cc(O)ccc4[C@H]3CC[C@@]21C [ETHINYL ESTRADIOL] | Not Active | Not Active | Not Active | Not Active | Not Active | Not Active | Not Active | Not Active | Not Active | Not Active | Not Active | Not Active |  | 
OCCO [ETHYLENE GLYCOL] | Not Active | Not Active | Not Active | Not Active | Not Active | Not Active | Not Active | Not Active | Not Active | Not Active | Not Active | Not Active |  | 
CC(=O)OCC(CCn1cnc2cnc(N)nc21)COC(C)=O [FAMCICLOVIR] | Not Active | Not Active | Not Active | Not Active | Not Active | Not Active | Not Active | Not Active | Not Active | Not Active | Not Active | Not Active |  | 
O=C(O)Cc1ccc(-c2ccccc2)cc1 [FELBINAC] | Not Active | Not Active | Not Active | Not Active | Not Active | Not Active | Not Active | Not Active | Not Active | Not Active | Not Active | Not Active |  | 
CCOC(=O)C1=C(C)NC(C)=C(C(=O)OC)C1c1cccc(Cl)c1Cl (stereo unspecified) [FELODIPINE] | Not Active | Not Active | Not Active | Not Active | Not Active | Not Active | Not Active | Not Active | Not Active | Not Active | Not Active | Not Active |  | 
